# From US6699494B2, “Pharmaceutical composition and method for treating premature labor” (Columbia Laboratories, Inc., priority 1997, dated 2004)
# Like-named read-outs stand apart in the source and are kept apart here.
# Tests used:
# [1] = Side effects at the 0.8% dose in the single and multiple dose studies; assay type: in vivo, human; settings: transvaginal gel
# Excerpt: (§1) Both the single and multiple dose studies discussed in the preceding examples also evaluated the 0.8% w/w concentration. The average age±SD for the single and multiple dose studies at the 0.8 dose were 26±3.42 and 26±4.12, respectively. The pharmacokinetic parameters from the study follow in Tables 4 and 5.
# A number of patients in the study (40%), however, experienced side effects such as tachycardia at this dose. […] This dose can be a method of practicing the invention, but is certainly not the most preferred embodiment.
# [2] = oral administration, cited from earlier work
# [3] = Human ex vivo uterine perfusion model, vagina to uterus transfer of tritiated terbutaline; assay type: in vitro ADME
# Protocol: This model verifies the preferential direct delivery of terbutaline from the vagina to the uterus. In this study, uteri obtained from women undergoing hysterectomies for benign diseases were immediately connected to an organ perfusion system in which temperature, CO2 concentration, uterine artery pressure and flow were maintained constant. A perfusion model was opened without recirculation. The direct transfer of terbutaline from the vagina to the uterus was analyzed by applying a mixture of tritiated [^3H] terbutaline and unlabeled terbutaline to the cuff of vaginal tissue remaining attached to the cervix after the hysterectomy. Tritiated terbutaline was only used for autoradiography analysis of sections of uterine tissue. The experiments were interrupted at predetermined time intervals after vaginal applications […]. At the end of the perfusion period, ^3H and ^14C radioactivity was measured in endometrial and myometrial samples. Tritiated water and ^14C dextran helped to determine that the extend of non-specific vagina to uterus transport (due to leaks of the system) was less than 10%. The myometrial extraction of terbutaline and its corresponding venous outflow during the 12 hour uterine perfusions are shown in FIG. 3 below. The ^3H terbutaline started to be recovered in the venous effluent uterine during the first 3 hours. Terbutaline flow was maximal at the 6th-9th hour and then decreased for up to 48 hours of perfusion. Terbutaline flow in the venous effluent uterine is the reflection of terbutaline exiting from the organ. Accumulation of tritiated terbutaline was maximal in the myometrium at 12 hours of perfusion. (Mean±SD of 18.40±3.40 ng/100 mg of tissue) and decreased slowly. Significant accumulation of ^3H terbutaline still remained at 48 hours of perfusion, with 20% of the original concentration present.
# [4] = terbutaline inhaler, dysmenorrhea; cited from earlier work
# [5] = cited from earlier work
# [6] = Single dose pharmacokinetic study of transvaginal terbutaline gel, serum terbutaline by GC-MS; assay type: in vivo, human
# Protocol: The objective of this study was to assess the pharmacokinetic parameters of the terbutaline and polycarbophil composition following a single dose regimen comparing progressively increasing concentrations. This open-label study was conducted in ten healthy female volunteers with a mean age of 25±SD (Standard Deviation) of 3.93 years. This study consisted of a 30 day screening period and a 24 hour treatment period with a follow-up evaluation conducted two days after administration of the final dose. The drug was administered transvaginally at 9:00 a.m. A wash out period of at least one week as observed between each of the four doses of the drug. All subjects were given an estro-progestative pill, to ensure that all study participants were at the same point in their menstrual cycle. They began dosing on day 7 to 10 of their pill intake for the single dose study. Serum terbutaline concentrations were obtained from blood samples collected predosing on the mornings of treatment, at frequent intervals during the initial 24 hours post dose (0.5, 1, 1.5, 2, 4, 6, 8, 12, 24 hours) and at 48 hours post dose. Serum terbutaline concentrations were determined using gas chromatography-mass spectrometry. Pharmacokinetic parameters were computed using concentration-time data for each subject following intake of the last dose of investigational drug on the morning of study day 6. The following pharmacokinetic parameters were computed: area under the drug concentration-time curve from time 0 to time t (AUC0-t), where t is the time of the last measurable concentration; peak drug concentration (Cmax); time to peak drug concentration (tmax); steady state drug concentration (CSS); and, elimination half-life (t½).
# All ten subjects completed the study for the 0.1%, 0.2%, and 0.4% (w/w) concentrations. For each dose, the onset of serum terbutaline concentrations occurred within 1 to 2 hours. (See FIG. 1 and Table 2 showing terbutaline concentrations for each tested dose). […] Concentrations were still detectable for up to 48 hours (mean±SEM (Standard Error of the Mean) of 113.11±32.25 pg/mL for the 0.4% concentration).
# as §1
# [7] = ex vivo perfused uterus, vaginal application
# [8] = female, human, 0.1 % (w/w), 0.1% gel, serum, mean ± SEM, n=10
# [9] = female, human, 0.2 % (w/w), 0.2% gel, serum, mean ± SEM, n=10
# [10] = female, human, 0.4 % (w/w), 0.4% gel, serum, mean ± SEM, n=10
# [11] = female, human, 0.8 % w/w, 0.8% gel, serum, mean ± SEM, n=8
smiles,measurement,setting,value
"CC(C)(C)NCC(O)c1cc(O)cc(O)c1 (stereo not shown) [Terbutaline, 5-[2-[(1,1-dimethylethyl)amino]-1-hydroxyethyl]-1,3-benzenediol]",patients who experienced side effects such as tachycardia,[1],40%
same,Bioavailability,[2]; extensive first-pass sulphation,15 and 20%
same,further decrease of bioavailability by concomitant food intake,[2],30%
same,time terbutaline lasted in the myometrium,[3]; after a single vaginal application,over 48 hours
same,accumulation of tritiated terbutaline in the myometrium,"[3]; at 12 hours of perfusion, Mean±SD",18.40±3.40 ng/100 mg of tissue
same,"3H terbutaline remaining, share of the original concentration",[3]; at 48 hours of perfusion,20%
same,time of maximal accumulation of tritiated terbutaline in the myometrium,[3]; [7],12 h
same,time within which 3H terbutaline started to be recovered in the venous effluent,[3]; [7],≤ 3 h
same,duration of the effect of each spray,[4],≥ 1 h
same,known serum levels for toxicity,[5]; prior art,3000 pg/mL
same,known serum threshold susceptible to trigger systemic adverse events such as tachycardia and tremor,[5]; reported in prior art,"3,000-3,500 pg/mL"
same,time for which serum concentrations were still detectable,[6],up to 48 hours
same,Css,"[6]; 0.1% gel, serum, mean ± SEM, n=10",0.056 ± 0.041 ng/mL
same,Css,"[6]; 0.2% gel, serum, mean ± SEM, n=10",0.191 ± 0.108 ng/mL
same,Css,"[6]; 0.8% gel, serum, mean ± SEM, n=8",0.579 ± 0.3 ng/mL
same,Cmax,[6]; [8],0.117 ± 0.059 ng/mL
same,Tmax,[6]; [8],13 ± 6 h
same,AUC(0-t),"[6]; female, human, 0.1 % (w/w), 0.1% gel, serum, mean ± SEM, n=10, read-out: AUC0 to 48",2.28 ± 1.84 ng·h/mL
same,half-life,"[6]; female, human, 0.1 % (w/w), 0.1% gel, serum, mean ± SEM, n=10, read-out: t½ (converted)",18 ± 12 h
same,Cmax,[6]; [9],0.297 ± 0.17 ng/mL
same,Tmax,[6]; [9],13 ± 6 h
same,AUC(0-t),"[6]; female, human, 0.2 % (w/w), 0.2% gel, serum, mean ± SEM, n=10, read-out: AUC0 to 48",8.01 ± 4.7 ng·h/mL
same,half-life,"[6]; female, human, 0.2 % (w/w), 0.2% gel, serum, mean ± SEM, n=10, read-out: t½ (converted)",29 ± 15 h
same,Cmax,[6]; [10],0.479 ± 0.149 ng/mL
same,Tmax,[6]; [10],14 ± 7 h
same,AUC(0-t),"[6]; female, human, 0.4 % (w/w), 0.4% gel, serum, mean ± SEM, n=10, read-out: AUC0 to 48",11.9 ± 5.28 ng·h/mL
same,half-life,"[6]; female, human, 0.4 % (w/w), 0.4% gel, serum, mean ± SEM, n=10, read-out: t½ (converted)",24 ± 16 h
same,AUC(0-t),"[6]; female, human, 0.8 % w/w gel, 0.8% gel, serum, mean ± SEM, n=8, read-out: AUC0 to 48",23.2 ± 13.5 ng·h/mL
same,Cmax,[6]; [11],0.787 ± 0.434 ng/mL
same,Tmax,[6]; [11],10 ± 3 h
same,half-life,"[6]; female, human, 0.8 % w/w, 0.8% gel, serum, mean ± SEM, n=8, read-out: t½ (converted)",20 ± 7 h
same,half-life,"[6]; female, human, serum, according to the dose administered (0.1%-0.4%), read-out: Mean t½ estimates",18 to 29 h
same,concentration at 48 h,"[6]; female, human, serum, other: transvaginal, 0.4 % (w/w), 0.4% concentration, mean±SEM",0.113 ± 0.0323 ng/mL
same,onset of serum terbutaline concentrations,"[6]; for each dose (0.1%, 0.2%, 0.4%)",1 to 2 h
